Measured values: US11654101B2, “Use of magnolia, juniper or violet absolute in cosmetics for depigmenting the skin” (ROBERTET S.A., priority 2017, dated 2023)

Test system: murine melanocytes B16-F10
Assay: Tests on B16 melanocytes, dosing of the intracellular melanin
Format: cell-based
Settings: B16-F10 cells incubated 24 h at 37° C.; intracellular melanin content, absorbance 405 nm
Protocol: […] model tests on melanin-producing cells, the murine melanocytes B16-F10, have been necessary. The decrease in the cellular tyrosinase activity, associated with a reduction of the intracellular melanin content, while preserving the survival of the cells by non-cytotoxic concentrations, have then been investigated. For this purpose, the B16-F10 cells have been seeded into 24-well plates, and incubated for 24 h at 37° C. with several concentrations of different selected raw materials. […] Afterwards, the cells are lysed, and centrifuged. In turn, the cell pellet is dissolved by a NaOH 1N solution and incubated for 1 hour at 70° C. before being deposited in a 96-well plate put in the spectrophotometer at 405 nm. Afterwards, a comparison with the absorbance of a standard melanin calibrated range allows determining the intracellular melanin content of each condition and checking on the inhibitor effect of the melanogenesis by the different raw materials.

O=c1cc(CO)occ1O [Kojic acid, kojic acid]
Effective IC50: 214 ppm
